Source: patent US8628938B2, “Polynucleotide encoding UDP-glucuronyl transferase” (Suntory Holdings Limited, priority 2007, dated 2014)

Legend:
S1UGT = assay: UDP-glucuronosyltransferase activity assay (HPLC) with recombinant S1UGT; type: biochemical, Scutellaria laeteviolacea v. yakusimensis; settings: 100 μM glycosyl acceptor substrate, 2 mM UDP-glucuronic acid, pH 7.5, 30° C., 30 minutes
Method: (§1) Escherichia coli BL21 (DE3) was transformed with each plasmid obtained in 4-(1) above. The transformant obtained was shake cultured overnight at 37° C. in 4 ml of LB medium (10 g/l tryptone, 5 g/l yeast extract, 1 g/l NaCl) supplemented with 50 μg/ml of ampicillin. The culture broth, 4 ml, which reached the stationary phase, was inoculated into 80 ml of the medium with the same composition, followed by shake culture at 37° C. When the cell turbidity (OD600) reached approximately 0.5, 0.4 mM IPTG (isopropyl-β-thiogalactopyranoside) in a final concentration was added to the medium, followed by shake culture at 22° C. for 20 hours. All of the subsequent procedures were performed at 4° C. The transformants cultured were centrifuged (7,000×g, 15 mins.) to collect the cells, and 2 ml/g cell of Buffer S (20 mM sodium phosphate buffer (pH 7.4), 20 mM imidazole, 0.5 M NaCl, 14 mM β-mercaptoethanol) was added to the cells for suspension. Subsequently, ultrasonication was performed (15 secs.×8) followed by centrifugation (15,000×g, 10 mins.). To the supernatant obtained, 0.12% (w/v) polyethyleneimine in a final concentration was added to […], which was then allowed to stand for 30 minutes. The mixture was centrifuged (15,000×g, 10 mins.) and the supernatant was recovered as a crude enzyme solution. The crude enzyme solution was applied to His SpinTrap (GE Healthcare), which had been equilibrated with Buffer S, and centrifuged (70×g, 30 secs.). After washing with 600 μl of Buffer S, the protein bound to the column was stepwise eluted with 600 μl each of Buffer S containing 100, 200 and 500 mM imidazole. The buffer in each fraction eluted was replaced by 20 mM potassium phosphate buffer (pH 7.5) containing 14 mM β-mercaptoethanol, using Microcon YM-30 (Amicon). […] These fractions were mixed and used for analysis.
(§2) Standard reaction conditions are as follows. A reaction solution (2 mM UDP-glucuronic acid, 100 μM glycosyl acceptor substrate, 50 mM potassium phosphate buffer (pH 7.5), enzyme solution), 50 μl, was prepared and the enzyme solution was added to initiate the reaction at 30° C. for 30 minutes. The reaction was stopped by adding 50 μl of 0.5% TFA in CH3CN and provided for HPLC analysis. The conditions for HPLC are as follows: column, Develosil C30-UG-5 (4.6×150 mm); eluant A, 0.1% TFA/H2O; eluant B, 0.08% TFA/90% CH3CN; conditions A for elution (except for aurone, catechin, coumarine and phenylpropanoid), 0 min/5% B→18 min/100% eluant B'18.1 min/5% B→25 min/5% B; conditions B for elution (aurone, catechin, coumarine and phenylpropanoid), 0 min/5% B→20 min/50% eluant B→20.5 min/5% B→25 min/5% B; flow rate, 1 ml/min; detection wavelength: 280 and 350 nm.

SiUGT23 = assay: UDP-glucuronosyltransferase activity assay (HPLC) with recombinant SiUGT23; type: biochemical, Sesamum indicum; settings: 100 μM glycosyl acceptor substrate, 2 mM UDP-glucuronic acid, pH 7.5, 30° C., 30 minutes
Method: as §2
cDNA containing full-length ORF of SiUGT23 derived from Sesamum indicum was amplified by a gene-specific primer set (SEQ ID NOs: 24 and 25). cDNA synthesized using total RNA extracted from sesame seeds was used as a template. SiUGT23 was incorporated into Escherichia coli expression vector as in UGT of Perilla frutescens, Scutellaria laeteviolacea v. yakusimensis and Antirrhinum majus in EXAMPLE 1 and recombinant SiUGT23 protein was expressed in the same way to assay the enzyme activity.

AmUGTcg10 = assay: UDP-glucuronosyltransferase activity assay (HPLC) with recombinant AmUGTcg10; type: biochemical, Antirrhinum majus; settings: 100 μM glycosyl acceptor substrate, 2 mM UDP-glucuronic acid, pH 7.5, 30° C., 30 minutes
Method: as §1, §2

Sb7GAT = settings: enzyme purified from Scutellaria baicalensis; Nagashima et al. 2000; cited from earlier work
PfUGT50 = assay: UDP-glucuronosyltransferase activity assay (HPLC) with recombinant PfUGT50; type: biochemical, Perilla frutescens; settings: 100 μM glycosyl acceptor substrate, 2 mM UDP-glucuronic acid, pH 7.5, 30° C., 30 minutes
Method: as §1, §2

[1] = Analysis of pH and temperature characteristics of the recombinant enzymes; type: biochemical; settings: for reaction optimum temperature: activity assay for 30 minutes, reaction temperature 10 to 55° C.; for activity in an acidic region: reaction pH dependency
Method: Temperature stability was analyzed as follows. An enzyme solution was treated at 15 to 55° C. for an hour and then cooled to 4° C. Using the sample cooled, the residual activity was determined under standard reaction conditions. After 167 mM final concentration of a buffer solution (pH 4, 4.5, 5, Acetate-NaOH; pH 5.5, 6, 6.5, 7, 7.5, NaH2PO4-NaOH; pH 8, 8.5, 9, Tris-HCl) was added to the enzyme solution, the mixture was treated at 4° C. for an hour and then 500 mM final concentration of potassium phosphate buffer (pH 7.5) was added thereto. Using the sample treated, the residual activity was determined under standard reaction conditions. The reaction was performed under standard reaction conditions where the reaction temperature was set at 10 to 55° C. to analyze the reaction temperature dependency. Reaction pH dependency was analyzed under standard reaction conditions using a buffer solution (pH 4, 4.5, 5, Acetate-NaOH; pH 5.5, 6, 6.5, 7, 7.5, NaH2PO4—NaOH; pH 8, 8.5, 9, Tris-HCl) in place of potassium phosphate buffer (pH 7.5). […] PfUGT50 was stable at 30° C. or lower (an hour, pH 7.5) and the reaction optimum temperature was 30° C. in the activity assay for 30 minutes. […] This enzyme was stable at 40° C. or lower (an hour, pH 7.5) and the reaction optimum temperature was 35° C. in the activity assay for 30 minutes. […] This enzyme was stable at 30° C. or lower (an hour, pH 7.5) and the reaction optimum temperature was 45° C. in the activity assay for 30 minutes. These properties were similar to known GT involved in plant secondary metabolism.

| Molecule | relative activity to each substrate, taking the activity to scutellarein as 100% (S1UGT) | relative activity to each substrate, taking the activity to scutellarein as 100% (SiUGT23) | relative activity to each substrate, taking the activity to scutellarein as 100% (AmUGTcg10) | action of Sb7GAT on the substrate (Sb7GAT) | relative activity to each substrate, taking the activity to scutellarein as 100% (PfUGT50) | reaction optimum temperature [1] | temperature at which the enzyme was stable (residual activity) ([1]; an hour, pH 7.5, treated at 15 to 55° C.) | activity in an acidic region [1] |
| --- | --- | --- | --- | --- | --- | --- | --- | --- |
| O=c1cc(-c2ccc(O)cc2)oc2cc(O)cc(O)c12 [apigenin] | 3% | 7% | 40% | does not act | 44% |  |  |  |
| O=c1cc(-c2ccc(O)c(O)c2)oc2cc(O)cc(O)c12 [luteolin] | 0.6% | 29% | 34% | does not act | 41% |  |  |  |
| O=c1c(O)c(-c2ccc(O)c(O)c2)oc2cc(O)cc(O)c12 [quercetin] | 1% | 4% | 4% | not | 26% |  |  |  |
| O=c1cc(-c2ccccc2)oc2cc(O)c(O)c(O)c12 [baicalein] | 63% | 24% | 22% | acts | 73% |  |  |  |
| S1UGT: UDP-glucuronosyltransferase having the amino acid sequence of SEQ ID NO: 11, derived from Scutellaria laeteviolacea v. yakusimensis (protein, listed as Scutellaria sp.) MEDTIVIYTTPEHLNTMAVLAKFISKHHPSVPIILISTAAESAAASIAAVPSITYHRLPLPEIPPSLTKDRVELFFELPRLSNPNLRLALQEISQKARIRAFVIDFFCNAAFEVSTSLSIPTFYYFSSGSPTATLVLHFQTLDETIPGDLKDLDDFVEIPGLPPIYSLDIPVALLTRQSLVYQSSVDISKNLRKSAGFLVNGFDALEFRAKEAIVNGLCVPNGPTPPVYFIGPLVGDVDAKAGGEEHECLRWLDTQPSKSVIFLCFGRRGVFSAEQLKETAVALENSGHRFLWSVRNPPEIMKNSDEPDLDELLPEGFLERTKDRGFVIKSWAPQKEVLSHDSVGGFVTHCGRSSISEGVWFGVPMIGWPVDAEQKLNRTVLVEEMQVALPMEEAEGGFVTAAELEKRVRELMESKVGKAVRQRVGELKCSARAAVTGNGSSLSDFKKFLLATRD |  |  |  |  |  | 35 °C | ≤ 40 °C | little activity |
| PfUGT50: UDP-glucuronosyltransferase having the amino acid sequence of SEQ ID NO: 5, derived from Perilla frutescens a red-leaf variety (protein, listed as Perilla frutescens) MEGVILLYSSAEHLNSMLLLATFIAKHHPSIPITILSSADYSAAASVSTLPSITYRRLPPVAIPPDSIKNPVEAFFEIPRLQNPNLRVALEEISQKTRIRAFVIDFFCNSAFEVSTSLSIPTYFYVSTGSAGVCIFLYFPTTDETVATDIGDLRDFLEFPGSPIIHSSDLPQLTFFRRSNVFKHMLDTSKNMQKSSGILTNGFDAMEFRAKEALTNGLCVPNGPTPPVYLVGPLVAGSNAKKDHECLLWLDRQPSKSVVFLCFGRRGLFSGKQLREMAVALERSGYRFLWSVRNPPENRSPAEDPDLDELLPEGFLERTKDIGFVVKSWAPQKEVLSHDAVAGFVTHCGRSSILEALVNGKPMIGWPMYAEQRMNKVFMVDEMKVALPLEEEEDGFVTAVELEKRLRQLMESKTGRDVRHRVAEMKAAATAAMGENGSAVVALRKFIDSVTRD |  |  |  |  |  | 30 °C |  | little activity |
| AmUGTcg10: UDP-glucuronosyltransferase having the amino acid sequence of SEQ ID NO: 13, derived from Antirrhinum majus (protein, listed as Antirrhinum majus) MEDTIVLYASAEHLNSMLLLGKLINKHHPTISVAIISTAPNAAASSVADVAAISYQQLKPATLPSDLTKNPIELFFEIPRLHNPNLLEALEELSLKSKVRAFVIDFFCNPAFEVSTSLNIPTYFYVSSGAFGLCGFLHFPTIDETVEKDIGELNDILEIPGCPPVLSSDFPKGMFFRKSNTYKHFLDTAKNMRRAKGIVVNAFDAMEFRAKEALVNNLCVPNSPTPPVFLVGPLVGASTTTKTTNEQHECLKWLDVQPDRSVIFLCFGRRGLFSADQLKEIAIGLENSGHRFLWSVRCPPSKPNSYNTDPDLDELLPEGFLSRTETRGFVIKSWAPQKEVLSHGAVGGFVTHCGRSSILEAVSFGVPMIGWPIYAEQRMNRVFMVEEMKVALQLDEVEEGFVAAVELEKRVKELMDSKNGRAVRQRVKEMKVAAEVAVEKGGSSVVALQRFVDMVVS |  |  |  |  |  | 45 °C |  | little activity |
